Legend:
[1] = cited from earlier work
[2] = Clinical DDI study: plasma pharmacokinetics of probe drugs; conditions: for increase of AUCinf on coadministration of capmatinib / increase of AUClast on coadministration of capmatinib / increase of Cmax on coadministration of capmatinib: compared to probe drug alone; for AUC(0-inf) / AUC(0-t) / Cmax / half-life / Tmax: human, in vivo; for AUC(0-inf): AUCinf; for AUC(0-t): AUClast; for half-life: T1/2, geo‐mean (geo‐CV%); for Tmax: median (min, max); for AUCinf geo‐mean ratio (90% CI) / AUClast geo‐mean ratio (90% CI) / Cmax geo‐mean ratio (90% CI): probe drug + capmatinib vs probe drug alone
[3] = adjusted geo‐mean, probe drug + capmatinib, linear mixed effects model
[4] = adjusted geo‐mean, probe drug alone, linear mixed effects model
[5] = geo‐mean (geo‐CV%), probe drug + capmatinib 400 mg twice daily, Day 22, plasma
[6] = geo‐mean (geo‐CV%), probe drug alone, Day 1, plasma
[7] = probe drug + capmatinib 400 mg twice daily, Day 22

Structure (SMILES) | increase of AUCinf on coadministration of capmatinib [2] | increase of AUClast on coadministration of capmatinib [2] | increase of Cmax on coadministration of capmatinib [2] | AUC(0-inf) [2, 3] | AUC(0-inf) [2, 4] | AUC(0-t) [2, 3] | AUC(0-t) [2, 4] | AUC(0-t) [2, 5] | AUC(0-t) [2, 6] | Cmax [2, 4] | Cmax [2, 6] | half-life ([2]; probe drug alone, Day 1) | Tmax ([2]; probe drug alone, Day 1) | other results
C[C@H]1O[C@@H](O[C@H]2[C@@H](O)C[C@H](O[C@H]3[C@@H](O)C[C@H](O[C@H]4CC[C@@]5(C)[C@H](CC[C@@H]6[C@@H]5C[C@@H](O)[C@]5(C)[C@@H](C7=CC(=O)OC7)CC[C@]65O)C4)O[C@@H]3C)O[C@@H]2C)C[C@H](O)[C@@H]1O [digoxin] | 47% | 63% | 74% | 0.0329 µg·h/mL | 0.0224 µg·h/mL | 0.0238 µg·h/mL | 0.0146 µg·h/mL | 0.0238 µg·h/mL | 0.0146 µg·h/mL | 1.12 ng/mL | 1.12 ng/mL | 47 h | 1.07 h | T1/2 ([1]; healthy subjects with normal renal function): 36 to 48 h; time of peak serum concentrations ([1]; oral administration): 1 to 3 h; half-life [2, 7]: 61.4 h
CC(C)c1nc(N(C)S(C)(=O)=O)nc(-c2ccc(F)cc2)c1/C=C/[C@@H](O)C[C@@H](O)CC(=O)O [rosuvastatin] | 108% | 103% | 204% | 0.156 µg·h/mL | 0.0752 µg·h/mL | 0.144 µg·h/mL | 0.071 µg·h/mL | 0.144 µg·h/mL | 0.071 µg·h/mL | 7.72 ng/mL | 7.72 ng/mL | 22 h | 2.04 h | Cmax [2, 3]: 23.5 ng/mL; Cmax [2, 5]: 23.5 ng/mL; Tmax [2, 7]: 1.55 h; AUCinf geo‐mean ratio (90% CI) [2]: 2.08 (1.56, 2.76); AUClast geo‐mean ratio (90% CI) [2]: 2.03 (1.61, 2.56); Cmax geo‐mean ratio (90% CI) [2]: 3.04 (2.36, 3.92); AUCinf geo‐mean ratio (90% CI) ([2]; listed as Rosuvastatin): 2.08 (1.56–2.76); AUClast geo‐mean ratio (90% CI) ([2]; listed as Rosuvastatin): 2.03 (1.61–2.56); Cmax geo‐mean ratio (90% CI) ([2]; listed as Rosuvastatin): 3.04 (2.36–3.92)
